Source: US20230065953A1, “NOVEL HETEROARYL-TRIAZOLE COMPOUNDS AS PESTICIDES” (Bayer Aktiengesellschaft, priority 2019, published 2023)

Key:
Type in all cases: in vivo
[1] = tested on: adult engorged female ticks (Rhipicephalus microplus); experiment: Rhipicephalus (Boophilus) microplus injection test; settings: 168 h, egg deposition after 7 days, read-out: efficacy (infertile eggs); for pest or weed control at 0.004 mg: 4 μg/animal
Summary of the method: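 Five adult engorged female ticks each injected into the abdomen with 1 μL of compound in DMSO, then kept in a climate chamber. Fertile egg deposition assessed after 7 days, with unclear eggs held until hatching around 42 days; efficacy 100% means all eggs infertile, 0% all fertile.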

[2] = tested on: Rhipicephalus microplus larvae (strain Parkhurst, resistant against synthetic pyrethroids); experiment: Rhipicephalus (Boophilus) microplus in-vitro contact test, larval cattle tick; settings: 5 μg/cm^2 (=500 g/ha), after 48 hours, read-out: efficacy (larvae dead or moribund)
Summary of the method: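 Efficacy is read at 48 h from negative geotactic behaviour after larvae are patted to the tube bottom, expressed as percentage dead or moribund. Larvae (20-50) sit in glass tubes whose walls carry an evaporated acetone film of compound (900 ppm corresponds to 5 μg/cm^2), kept at 27° C., 85% relative humidity.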

[3] = tested on: adult unfed cat fleas (Ctenocephalides felis); experiment: Ctenocephalides felis oral test; settings: 48 h
Summary of the method: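 About 20 adult unfed fleas fed through parafilm on cattle blood containing compound (DMSO stock diluted in blood), blood held at 37 °C and fleas at room temperature. Mortality (%) scored after 2 days.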

[4] = tested on: adult brown dog ticks (Rhipicephalus sanguineus); experiment: Rhipicephalus sanguineus in-vitro contact test with adult brown dog ticks; settings: 5 μg/cm^2 (=500 g/ha), after 48 hours, read-out: efficacy (ticks dead or moribund)
Summary of the method: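 Glass tubes are coated with compound dissolved in acetone, a 900 ppm solution yielding 5 μg/cm^2 on the inner surface. Adult ticks (5-10 per tube) are kept on the dry film at room temperature for 48 h, then those unable to escape 45-50° C heat are counted as dead or moribund.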

[5] = tested on: adult cat fleas (Ctenocephalides felis); experiment: Ctenocephalides felis in-vitro contact test, adult cat flea; settings: 5 μg/cm^2 (=500 g/ha), after 48 hours
Summary of the method: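 After 48 h of room-temperature exposure in tubes whose walls carried dried compound residue (5 μg/cm^2, from 900 ppm acetone solution), adult cat fleas (5-10 per tube) were heat-challenged at 45-50° C up to 5 min. Fleas unable to climb away were counted dead or moribund, expressed as % efficacy.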

[6] = tested on: adult flies Musca domestica strain WHO-N; experiment: Musca domestica test (MUSCDO surface treatment & contact assay); settings: 24 hours after contact, read-out: efficacy (mortality); for mortality at 4 mg/m2: surface concentration 4 mg/m^2, 30 min exposure; for mortality at 20 mg/m2: surface concentration 20 mg/m^2, 30 min exposure
Summary of the method: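 Percent kill read 24 h post-contact, after adult flies (strain WHO-N) spent 30 min on a glazed tile treated with test solution (acetone, 2 mg/ml, plus 2000 ppm rapeseed oil methyl ester) and dried.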

[7] = tested on: fall armyworm larvae (Spodoptera frugiperda); experiment: Spodoptera frugiperda spray test (maize leaf sections); settings: 168 h
Summary of the method: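 Percent kill of Spodoptera frugiperda caterpillars read at day 7. Larvae placed on dried Zea mays leaf pieces previously sprayed with test preparation, made from acetone plus DMF and diluted with emulsifier-containing water (1000 ppm).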

[8] = tested on: green peach aphid (Myzus persicae); experiment: Myzus persicae oral test; settings: 120 h
Summary of the method: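 Compound was dissolved in acetone, diluted with water and mixed into IPL41 insect medium with sugar under a parafilm seal. A mixed aphid population fed through the parafilm, and mortality (%) was scored after 5 days.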

SMILES	pest or weed control at 0.004 mg [1]	pest or weed control at 0.02 mg ([1]; 20 μg/animal)	pest or weed control at 5 µg/cm2 [2]	mortality at 100 ppm [3]	pest or weed control at 5 µg/cm2, 500 g/ha [4]	efficacy (fleas dead or moribund) [5]	mortality at 4 mg/m2 [6]	mortality at 20 mg/m2 [6]	mortality at 100 g/ha [7]	mortality at 4 ppm [8]
C[C@H](NC(=O)c1cc(C(F)(F)F)cc(C(F)(F)F)c1)c1ncnn1-c1ncc(C#N)s1 [I-2]	100%	100%	100%	100%	100%	80%	90 to 100%	80 to 100%	100%	100%
Cc1nc([C@H](C)NC(=O)c2cc(C(F)(F)F)cc(C(F)(F)F)c2)n(-c2ncc(C(=O)N(C)CC3CC3)s2)n1 [I-4]	100%	–	100%	100%	100%	100%	–	80 to 100%	100%	100%
Cc1nc([C@H](C)NC(=O)c2cc(C(F)(F)F)cc(C(F)(F)F)c2)n(-c2ncc(C(=O)N(C)C)s2)n1 [I-5, 2-(5-{(1S)-1-[3,5-bis(trifluoromethyl)benzamido]ethyl}-3-methyl-1H-1,2,4-triazol-1-yl)-N,N-dimethyl-1,3-thiazole-5-carboxamide]	100%	–	100%	100%	100%	100%	90 to 100%	–	100%	100%
CCN(C)C(=O)c1cnc(-n2nc(C)nc2[C@H](C)NC(=O)c2cc(C(F)(F)F)cc(C(F)(F)F)c2)s1 [I-6]	100%	–	100%	100%	100%	100%	90 to 100%	80 to 100%	100%	100%
Cc1nc([C@H](C)NC(=O)c2cc(C(F)(F)F)cc(C(F)(F)F)c2)n(-c2ncc(C(=O)N(C)CC#N)s2)n1 [I-9]	100%	–	100%	100%	100%	100%	–	80 to 100%	100%	100%
Cc1nc([C@H](C)NC(=O)c2cc(C(F)(F)F)cc(C(F)(F)F)c2)n(-c2ncc(C(N)=O)s2)n1 [I-21, 2-(5-{(1S)-1-[3,5-bis(trifluoromethyl)benzamido]ethyl}-3-methyl-1H-1,2,4-triazol-1-yl)-1,3-thiazole-5-carboxamide]	100%	–	100%	100%	100%	100%	90 to 100%	80 to 100%	100%	100%
